Source: patent publication US12171766B2, “Methods of treating patients suffering from brain injury and methods of increasing the value of the extended Glasgow Outcome Scale of patients suffering from brain injury” (VERINOS OPERATIONS GMBH, priority 2021, dated 2024)

How the values were obtained:
[1] = NOSTRA phase III trial: exposure control (pharmacokinetics), samples after end of infusion and 12 hours after end of infusion; type: in vivo, human; conditions: exposure control samples; no utilizable values for parent
Experimental: An exposure control was performed with samples collected after end of infusion and 12 hours after end of infusion. Due to the high sensibility of Ronopterin to oxidation, no utilizable values could be obtained for Ronopterin and, therefore, the first metabolite, 4-amino-dihydrobiopterin, was used as a surrogate. The mean absolute concentration for the first metabolite of Ronopterin was 1071 ng/mL at the end of the infusion and 476 ng/mL 12 hours later (56% elimination). The mean absolute value for the second Ronopterin metabolite was 52 ng/mL at the end of the infusion and 37 ng/mL 12 hours after end of infusion.

[2] = NOSTRA phase III trial: safety and adverse event analyses; type: in vivo
Experimental: Safety analyses was performed using standard descriptive methods.
The total number of treatment-emergent adverse events (TEAE) and the total number of patients with TEAEs, the total number of TEAEs related to the study drug (certain, probable, possible), the total number of patients with TEAEs related to the study drug, the total number of TEAEs and the total number of patients with serious TEAEs, the total number of patients with TEAEs leading to discontinuation of study treatment and the total number of patients with TEAEs leading to death were summarised by treatment arm.

[3] = test system: Moderate and Severe Traumatic Brain Injury; conditions: cited from earlier work
animal models of TBI = conditions: mice, Terpolilli et al. 2009; cited from earlier work
[4] = may be due to over-reporting of some centres

With `CC(O)C(O)C1CNc2nc(N)nc(N)c2N1` [Ronopterin, 4-Amino-(6R,S)-5,6,7,8-tetrahydro-L-biopterin] the sensibility to oxidation [1] was “high”, the “number of renal AEs” value ([2]; Ronopterin:placebo 11:3) was 11 and the “tolerability of study treatment” value ([2]; TBI patients, 17 mg/kg over 48 hours) was “well-tolerated”. The “number of related AE/SAEs” value ([2]; between the groups (Ronopterin, placebo)) was “low and comparable”, the “number of adverse events (AEs) and serious adverse events (SAEs) compared to placebo” value ([2]; in vivo) was “slightly higher” and the “ICP increased, number of patients” value [2, 4] was 27 patients. The “ICP increased, proportion of patients” value [2, 4] was 23.9%, the “effect of infusion during the initial 12 hours after TBI” value ([3]; Phase IIa trial [Stover]) was “benefits” and the “effect in phase II clinical trial” value ([3]; Stover et al. 2014 (NOSTRA phase IIa)) was “beneficial”. For the same compound, the “effect in animal models of TBI” value (animal models of TBI) was “beneficial”.
